In PubChem BioAssay AID624322 (Sanford-Burnham Center for Chemical Genomics, 2012):
The source made the active and inactive calls. The rule behind the calls is not given here.

Each molecule was assayed against Sentrin-specific protease 8 (Homo sapiens) (UniProt Q96LD8) (assay: SENP8 deneddylase blockers, concentration series – biochemical, Nedd8 protein substrate, dose response (AID 624322)). Details: recombinant SENP8, Nedd8 substrate cleavage inhibition.
Sentrin-specific protease 8 (Homo sapiens), sequence (Q96LD8 whole entry, looked up): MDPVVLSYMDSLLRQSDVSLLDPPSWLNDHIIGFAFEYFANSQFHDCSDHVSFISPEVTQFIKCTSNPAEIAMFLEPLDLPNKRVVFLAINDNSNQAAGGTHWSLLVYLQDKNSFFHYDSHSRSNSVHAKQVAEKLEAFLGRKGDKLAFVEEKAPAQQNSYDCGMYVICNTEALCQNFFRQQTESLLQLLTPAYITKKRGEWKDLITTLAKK
With Cc1ccc(S(=O)(=O)N[C@H](C(=O)N2CCC(C(=O)N[C@H](C(=O)O)c3ccccc3)CC2)C(C)C)cc1 the IC50 was > 100 µM (inactive).
For O=C(NC1C(=O)NNC1c1ccccc1)c1ccccc1 (stereo unspecified), the IC50 was > 100 µM (inactive).
For O=[N+]([O-])c1cc(F)c2cccnc2c1O, the IC50 was 11.8 µM.
Molecule O=C(Nc1c(-c2ccccc2)[nH][nH]c1=O)c1cnccn1 has an IC50 of 42.6 µM.
With O=C(O)CCCCCCCCCCCc1ccccc1 the IC50 was > 100 µM (inactive).
For O=c1[nH]c2ccccc2s1, the IC50 was > 100 µM (inactive).
O=C(N/N=C/c1ccc([N+](=O)[O-])o1)c1ccccc1-n1cccc1 was tested, and the IC50 was > 100 µM (inactive).
In the case of O=C(CCc1ccccc1)c1c(O)cc(O)cc1O, the IC50 is reported as > 100 µM (inactive).
In the case of O=C(O)c1ccc(Cl)c(S(=O)(=O)NCc2ccco2)c1, the IC50 is reported as > 100 µM (inactive).
CC1=C(SCCC#N)S/C(=C2\SC(C)=C(SCCC#N)S2)S1 showed an IC50 of 0.297 µM.
In the case of COc1ccc(-n2[nH]c(C)cc2=O)cc1, the IC50 is reported as > 100 µM (inactive).
With Cn1c(Cc2ccccc2)nnc1SCC(=O)c1cccs1 the IC50 was > 100 µM (inactive).
COc1ccc(O)c(C(c2c(C)[nH][nH]c2=O)c2c(C)[nH][nH]c2=O)c1 showed an IC50 of 7.17 µM.
With CCCn1nc([N+](=O)[O-])c(C(C#N)c2nc3ccccc3o2)c(Cl)c1=O (stereo unspecified) the IC50 was > 100 µM (inactive).
NC(=O)c1ccc(N=Cc2ccc([N+](=O)[O-])s2)cc1 was tested, and the IC50 was 2.48 µM.
Work on O=[N+]([O-])c1ccc(N2CCN(Cc3ccccc3)CC2)c2c1no[n+]2[O-] yielded an IC50 of 17.4 µM.
